# Measured values published in patent publication US12522623B2, “Small molecule STAT protein degraders” (THE REGENTS OF THE UNIVERSITY OF MICHIGAN, priority 2020, dated 2026).
# How the values were obtained:
# STAT3 = target: T1, STAT3 (Homo sapiens, UniProt P40763); experiment: Fluorescent immunoblotting of STAT3 protein in MOLM-16 cells (estimated DC50); format: cell-based; settings: MOLM-16, 4 h
# T1 construct: endogenous in cells; host or cells: MOLM-16 (acute leukemia cells)
# Method: In vitro cultured cells or xenograft tumors were lysed 1×Cell Lysis Buffer (Cell Signaling Technology, #9803), resolved by SDS-PAGE NuPAGE gel (Thermo Fisher Scientific), and transferred to a PVDF membrane (Bio Rad). For chemiluminescence immunoblotting, membranes were blocked for 1 h using 5% Blotting-Grade Blocker (#1706404, Bio Rad) in 1×Tris-buffered saline with Tween 20 (TBST, Pierce). Antibodies used were: rabbit mAbs for STAT3 (Cell Signaling Technology, #4368, #12640) and p-STAT3 (Y705) (Cell Signaling Technology, #9245, #52075). HRP conjugated goat anti-rabbit IgG (H+L) (#A27036) secondary antibodies was from Thermo Fisher Scientific. GAPDH (Santa Cruz Technology, sc-47724HRP) and actin (Santa Cruz Technology, sc-8432HRP, sc-47778HRP) were loading controls. For fluorescent immunoblotting, membranes were blocked using Odyssey TBS Blocker Buffer (LI-COR). IRDye 680RD and 800CW Dye-labeled secondary antibodies (LI-COR) were used. The washed membranes were scanned using Odyssey CLx imager (LI-COR). The intensity of Western blot signaling was quantitated using the Odyssey software or Image Studio V5.2 (LI-COR).
# MOLM-16 cells = experiment: Cell growth inhibition, 4-day proliferation assay (CellTiter-Glo); format: cell-based; settings: MOLM16, 96 h; MOLM-16, 4 days
# Method: The effect of representative Compounds of the Disclosure on cell viability was determined in a 4-day proliferation assay. Cells were maintained in the appropriate culture medium at 37° C. and an atmosphere of 5% CO2. All the cell lines were used within three months of thawing fresh vials. Cells were seeded in 384-well white plates (Corning Costar) at a density of 2,000 cells/well in 25 μl of culture medium. Compounds were serially diluted in the appropriate medium, and 25 μl of the diluted compounds were added to the cells. After the addition of compounds, the cells were incubated at 37° C. in an atmosphere of 5% CO2 for 4 days. Cell viability was determined using the CellTiter-Glo® Luminescent Cell Viability Assay Kit (Promega, Madison, WI) according to the manufacturers' instructions. Essentially, 50 μl of CellTiter-Glo® Reagent was added to each well, and then the plates were incubated at room temperature for 20 minutes. The luminescent signal was measured using a Tecan multimode microplate reader (Tecan, Morrisville, NC). The readings were normalized to the DMSO-treated cells and the IC50 was calculated by nonlinear regression (four parameters sigmoid fitted with variable slope, least squares fit, and no constraint) analysis using the GraphPad Prism software.
# T1 sequence (P40763 whole entry): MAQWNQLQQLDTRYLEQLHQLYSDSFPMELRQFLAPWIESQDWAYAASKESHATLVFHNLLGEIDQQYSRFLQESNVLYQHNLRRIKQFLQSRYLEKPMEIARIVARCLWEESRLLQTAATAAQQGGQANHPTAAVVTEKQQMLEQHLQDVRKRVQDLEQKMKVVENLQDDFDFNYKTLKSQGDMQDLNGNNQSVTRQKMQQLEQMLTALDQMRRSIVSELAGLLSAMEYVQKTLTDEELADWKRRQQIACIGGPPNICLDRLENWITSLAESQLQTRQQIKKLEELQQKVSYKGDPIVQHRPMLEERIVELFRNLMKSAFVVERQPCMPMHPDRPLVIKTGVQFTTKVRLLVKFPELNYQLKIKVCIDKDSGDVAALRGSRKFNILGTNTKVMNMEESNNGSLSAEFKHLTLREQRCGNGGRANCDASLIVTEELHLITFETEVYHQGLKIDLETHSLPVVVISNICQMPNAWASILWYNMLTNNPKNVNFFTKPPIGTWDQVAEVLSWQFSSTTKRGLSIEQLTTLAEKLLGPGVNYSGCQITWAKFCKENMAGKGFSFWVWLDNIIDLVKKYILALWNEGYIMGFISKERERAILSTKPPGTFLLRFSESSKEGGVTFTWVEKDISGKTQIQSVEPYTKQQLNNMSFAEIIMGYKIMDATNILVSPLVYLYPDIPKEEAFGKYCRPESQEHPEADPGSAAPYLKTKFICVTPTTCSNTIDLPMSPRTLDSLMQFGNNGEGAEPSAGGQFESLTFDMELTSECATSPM
Compound,DC50 (STAT3) [nM],IC50 (MOLM-16 cells) [nM]
"NC(=O)CC[C@H](NC(=O)[C@@H]1CC[C@@H]2CCN(C(=O)CCCCCC#Cc3cccc4c3CN(C3CCC(=O)NC3=O)C4=O)C[C@H](NC(=O)c3cc4cc(C(F)(F)P(=O)(O)O)ccc4s3)C(=O)N21)c1ncc(Cc2ccccc2)s1 (stereo partly drawn) [Cpd. No. 5, ((2-(((5S,8S,10aR)-8-(((S)-4-amino-1-(5-benzylthiazol-2-yl)-4-oxobutyl)carbamoyl)-3-(8-(2-(2,6-dioxopiperidin-3-yl)-1-oxoisoindolin-4-yl)oct-7-ynoyl)-6-oxodecahydropyrrolo[1,2-a][1,5]diazocin-5-yl)carbamoyl)benzo[b]thiophen-5-yl)difluoromethyl)phosphonic acid]",100,49
"NC(=O)CC[C@H](NC(=O)[C@@H]1CC[C@@H]2CCN(C(=O)CCCCCC#Cc3cccc4c3CN(C3CCC(=O)NC3=O)C4=O)C[C@H](NC(=O)c3cc4cc(C(F)(F)P(=O)(O)O)ccc4s3)C(=O)N21)c1ncc(-c2ccccc2F)s1 (stereo partly drawn) [Cpd. No. 16, ((2-(((5S,8S,10aR)-8-(((S)-4-amino-1-(5-(2-fluorophenyl)thiazol-2-yl)-4-oxobutyl)carbamoyl)-3-(8-(2-(2,6-dioxopiperidin-3-yl)-1-oxoisoindolin-4-yl)oct-7-ynoyl)-6-oxodecahydropyrrolo[1,2-a][1,5]diazocin-5-yl)carbamoyl)benzo[b]thiophen-5-yl)difluoromethyl)phosphonic acid]",50,68
"NC(=O)OC[C@H](NC(=O)[C@@H]1CC[C@@H]2CCN(C(=O)CCCCCC#Cc3cccc4c3CN(C3CCC(=O)NC3=O)C4=O)C[C@H](NC(=O)c3cc4cc(C(F)(F)P(=O)(O)O)ccc4s3)C(=O)N21)c1ncc(-c2ccccc2)s1 (stereo partly drawn) [Cpd. No. 8, ((2-(((5S,8S,10aR)-8-(((S)-2-(carbamoyloxy)-1-(5-phenylthiazol-2-yl)ethyl)carbamoyl)-3-(8-(2-(2,6-dioxopiperidin-3-yl)-1-oxoisoindolin-4-yl)oct-7-ynoyl)-6-oxodecahydropyrrolo[1,2-a][1,5]diazocin-5-yl)carbamoyl)benzo[b]thiophen-5-yl)difluoromethyl)phosphonic acid]",100,13
"NC(=O)CC[C@H](NC(=O)[C@@H]1CC[C@@H]2CCN(C(=O)CCCCCC#Cc3cccc4c3CN(C3CCC(=O)NC3=O)C4=O)C[C@H](NC(=O)c3cc4cc(C(F)(F)P(=O)(O)O)ccc4s3)C(=O)N21)c1nc(-c2ccc(Cl)cc2)cs1 (stereo partly drawn) [Cpd. No. 13, ((2-(((5S,8S,10aR)-8-(((S)-4-amino-1-(4-(4-chlorophenyl)thiazol-2-yl)-4-oxobutyl)carbamoyl)-3-(8-(2-(2,6-dioxopiperidin-3-yl)-1-oxoisoindolin-4-yl)oct-7-ynoyl)-6-oxodecahydropyrrolo[1,2-a][1,5]diazocin-5-yl)carbamoyl)benzo[b]thiophen-5-yl)difluoromethyl)phosphonic acid]",100,–
"NC(=O)CC[C@H](NC(=O)[C@@H]1CC[C@@H]2CCN(C(=O)CCCCCC#Cc3cccc4c3CN(C3CCC(=O)NC3=O)C4=O)C[C@H](NC(=O)c3cc4cc(C(F)(F)P(=O)(O)O)ccc4s3)C(=O)N21)c1nc(-c2ccc(F)c(Cl)c2)cs1 (stereo partly drawn) [Cpd. No. 14, ((2-(((5S,8S,10aR)-8-(((S)-4-amino-1-(4-(3-chloro-4-fluorophenyl)thiazol-2-yl)-4-oxobutyl)carbamoyl)-3-(8-(2-(2,6-dioxopiperidin-3-yl)-1-oxoisoindolin-4-yl)oct-7-ynoyl)-6-oxodecahydropyrrolo[1,2-a][1,5]diazocin-5-yl)carbamoyl)benzo[b]thiophen-5-yl)difluoromethyl)phosphonic acid]",50,37
"NC(=O)CC[C@H](NC(=O)[C@@H]1CC[C@@H]2CCN(C(=O)CCCCCC#Cc3cccc4c3CN(C3CCC(=O)NC3=O)C4=O)C[C@H](NC(=O)c3cc4cc(C(F)(F)P(=O)(O)O)ccc4s3)C(=O)N21)c1nc(-c2ccccc2)cs1 (stereo partly drawn) [Cpd. No. 4, ((2-(((5S,8S,10aR)-8-(((S)-4-amino-4-oxo-1-(4-phenylthiazol-2-yl)butyl)carbamoyl)-3-(8-(2-(2,6-dioxopiperidin-3-yl)-1-oxoisoindolin-4-yl)oct-7-ynoyl)-6-oxodecahydropyrrolo[1,2-a][1,5]diazocin-5-yl)carbamoyl)benzo[b]thiophen-5-yl)difluoromethyl)phosphonic acid]",200,140
"CC(C)(C)c1ccc(-c2cnc([C@H](CCC(N)=O)NC(=O)[C@@H]3CC[C@@H]4CCN(C(=O)CCCCCC#Cc5cccc6c5CN(C5CCC(=O)NC5=O)C6=O)C[C@H](NC(=O)c5cc6cc(C(F)(F)P(=O)(O)O)ccc6s5)C(=O)N43)s2)cc1 (stereo partly drawn) [Cpd. No. 17, ((2-(((5S,8S,10aR)-8-(((S)-4-amino-1-(5-(4-(tert-butyl)phenyl)thiazol-2-yl)-4-oxobutyl)carbamoyl)-3-(8-(2-(2,6-dioxopiperidin-3-yl)-1-oxoisoindolin-4-yl)oct-7-ynoyl)-6-oxodecahydropyrrolo[1,2-a][1,5]diazocin-5-yl)carbamoyl)benzo[b]thiophen-5-yl)difluoromethyl)phosphonic acid]",200,–
"NC(=O)CC[C@H](NC(=O)[C@@H]1CC[C@@H]2CCN(C(=O)CCCCCC#Cc3cccc4c3CN(C3CCC(=O)NC3=O)C4=O)C[C@H](NC(=O)c3cc4cc(C(F)(F)P(=O)(O)O)ccc4s3)C(=O)N21)c1nc2c(s1)Cc1ccccc1-2 (stereo partly drawn) [Cpd. No. 6, ((2-(((5S,8S,10aR)-8-(((S)-4-amino-1-(8H-indeno[1,2-d]thiazol-2-yl)-4-oxobutyl)carbamoyl)-3-(8-(2-(2,6-dioxopiperidin-3-yl)-1-oxoisoindolin-4-yl)oct-7-ynoyl)-6-oxodecahydropyrrolo[1,2-a][1,5]diazocin-5-yl)carbamoyl)benzo[b]thiophen-5-yl)difluoromethyl)phosphonic acid]",100,64
"NC(=O)CC[C@H](NC(=O)[C@@H]1CC[C@@H]2CCN(C(=O)CCCCCC#Cc3cccc4c3CN(C3CCC(=O)NC3=O)C4=O)C[C@H](NC(=O)c3cc4cc(C(F)(F)P(=O)(O)O)ccc4s3)C(=O)N21)c1nc(-c2ccc(F)cc2)cs1 (stereo partly drawn) [Cpd. No. 12, ((2-(((5S,8S,10aR)-8-(((S)-4-amino-1-(4-(4-fluorophenyl)thiazol-2-yl)-4-oxobutyl)carbamoyl)-3-(8-(2-(2,6-dioxopiperidin-3-yl)-1-oxoisoindolin-4-yl)oct-7-ynoyl)-6-oxodecahydropyrrolo[1,2-a][1,5]diazocin-5-yl)carbamoyl)benzo[b]thiophen-5-yl)difluoromethyl)phosphonic acid]",100,–
"NC(=O)CC[C@H](NC(=O)[C@@H]1CC[C@@H]2CCN(C(=O)CCCCCC#Cc3cccc4c3CN(C3CCC(=O)NC3=O)C4=O)C[C@H](NC(=O)c3cc4cc(C(F)(F)P(=O)(O)O)ccc4s3)C(=O)N21)c1nc(-c2ccc(F)c(F)c2)cs1 (stereo partly drawn) [Cpd. No. 11, ((2-(((5S,8S,10aR)-8-(((S)-4-amino-1-(4-(3,4-difluorophenyl)thiazol-2-yl)-4-oxobutyl)carbamoyl)-3-(8-(2-(2,6-dioxopiperidin-3-yl)-1-oxoisoindolin-4-yl)oct-7-ynoyl)-6-oxodecahydropyrrolo[1,2-a][1,5]diazocin-5-yl)carbamoyl)benzo[b]thiophen-5-yl)difluoromethyl)phosphonic acid]",100,–
"NC(=O)CC[C@H](NC(=O)[C@@H]1CC[C@@H]2CCN(C(=O)CCCCCC#Cc3cccc4c3CN(C3CCC(=O)NC3=O)C4=O)C[C@H](NC(=O)c3cc4cc(C(F)(F)P(=O)(O)O)ccc4s3)C(=O)N21)c1ncc(-c2ccc(Cl)cc2)s1 (stereo partly drawn) [Cpd. No. 7, ((2-(((5S,8S,10aR)-8-(((S)-4-amino-1-(5-(4-chlorophenyl)thiazol-2-yl)-4-oxobutyl)carbamoyl)-3-(8-(2-(2,6-dioxopiperidin-3-yl)-1-oxoisoindolin-4-yl)oct-7-ynoyl)-6-oxodecahydropyrrolo[1,2-a][1,5]diazocin-5-yl)carbamoyl)benzo[b]thiophen-5-yl)difluoromethyl)phosphonic acid]",50,–
"CC(C)(C)c1cnc([C@H](CCC(N)=O)NC(=O)[C@@H]2CC[C@@H]3CCN(C(=O)CCCCCC#Cc4cccc5c4CN(C4CCC(=O)NC4=O)C5=O)C[C@H](NC(=O)c4cc5cc(C(F)(F)P(=O)(O)O)ccc5s4)C(=O)N32)s1 (stereo partly drawn) [Cpd. No. 15, ((2-(((5S,8S,10aR)-8-(((S)-4-amino-1-(5-(tert-butyl)thiazol-2-yl)-4-oxobutyl)carbamoyl)-3-(8-(2-(2,6-dioxopiperidin-3-yl)-1-oxoisoindolin-4-yl)oct-7-ynoyl)-6-oxodecahydropyrrolo[1,2-a][1,5]diazocin-5-yl)carbamoyl)benzo[b]thiophen-5-yl)difluoromethyl)phosphonic acid]",500,–
